# Source: patent US7655756B2 (Johnson & Johnson Pharmaceutical Research & Development, LLC, priority 2005, dated 2010)
# “Also recorded” adds a separate entry of the source.
# How the values were obtained:
# ERRα = molecular target: T1, ERRα (Homo sapiens, UniProt P11474); assay: ThermoFluor thermal shift assay, ERRα; assay type: binding; conditions: 100 μM test compound, 0.1 mg/mL protein, 25 mM HEPES pH 8.0, 25 μM ANS, 2% DMSO, Tm free protein 54.4 °C
# T1 sequence (P11474 193-421 limits assumed): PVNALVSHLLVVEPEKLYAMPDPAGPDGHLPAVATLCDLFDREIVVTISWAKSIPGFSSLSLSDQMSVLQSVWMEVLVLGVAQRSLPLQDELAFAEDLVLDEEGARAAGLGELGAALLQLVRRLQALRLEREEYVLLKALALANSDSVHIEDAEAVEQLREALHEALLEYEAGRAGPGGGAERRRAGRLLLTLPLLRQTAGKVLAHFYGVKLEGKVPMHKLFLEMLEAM
# ERRβ = molecular target: T2, ERRβ (Homo sapiens, UniProt O95718); assay: ThermoFluor thermal shift assay, ERRβ; assay type: binding
# T2 sequence (O95718 208-432 limits assumed): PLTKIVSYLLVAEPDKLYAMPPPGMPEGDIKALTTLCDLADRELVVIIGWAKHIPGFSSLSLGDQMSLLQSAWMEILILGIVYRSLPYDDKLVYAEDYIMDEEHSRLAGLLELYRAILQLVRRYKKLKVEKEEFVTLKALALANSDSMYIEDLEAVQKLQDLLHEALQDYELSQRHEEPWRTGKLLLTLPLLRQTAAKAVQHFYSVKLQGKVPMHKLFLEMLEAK
# ERα = molecular target: T3, ERα (Homo sapiens, UniProt P03372); assay: ThermoFluor thermal shift assay, ERα; assay type: binding
# T3 sequence (P03372 1-595): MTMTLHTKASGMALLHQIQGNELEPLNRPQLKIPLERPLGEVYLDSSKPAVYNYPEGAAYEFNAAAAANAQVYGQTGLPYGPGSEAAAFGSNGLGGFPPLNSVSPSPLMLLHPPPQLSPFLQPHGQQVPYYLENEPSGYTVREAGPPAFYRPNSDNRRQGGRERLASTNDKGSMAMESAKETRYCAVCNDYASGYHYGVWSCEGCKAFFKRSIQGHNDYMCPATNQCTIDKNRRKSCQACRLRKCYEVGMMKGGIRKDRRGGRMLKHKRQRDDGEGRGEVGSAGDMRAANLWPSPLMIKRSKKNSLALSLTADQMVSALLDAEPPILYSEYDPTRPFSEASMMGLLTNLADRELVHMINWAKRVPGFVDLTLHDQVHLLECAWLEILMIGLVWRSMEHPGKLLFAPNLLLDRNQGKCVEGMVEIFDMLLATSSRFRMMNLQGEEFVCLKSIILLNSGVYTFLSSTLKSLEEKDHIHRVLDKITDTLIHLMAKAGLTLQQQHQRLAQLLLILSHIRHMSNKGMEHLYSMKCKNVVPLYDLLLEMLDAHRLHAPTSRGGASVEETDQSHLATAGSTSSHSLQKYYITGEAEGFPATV
# [1] = molecular target: T4, ligand binding domain of ERRγ (Homo sapiens, UniProt P62508); assay: Thermal denaturation monitored by CD spectroscopy; conditions: data not shown
# T4 construct: 6His; made in house; host or cells: E. coli BL21(DE3)
# T4 sequence (P62508 229-458): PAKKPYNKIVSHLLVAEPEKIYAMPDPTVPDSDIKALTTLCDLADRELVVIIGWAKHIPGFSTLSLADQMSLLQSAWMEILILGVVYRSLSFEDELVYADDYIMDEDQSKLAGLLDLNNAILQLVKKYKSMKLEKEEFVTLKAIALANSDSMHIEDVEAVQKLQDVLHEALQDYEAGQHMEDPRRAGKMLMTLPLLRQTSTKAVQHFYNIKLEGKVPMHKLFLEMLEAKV
# Text: Ligand binding energy adds directly to the ground state energy of a macromolecule and results in increased thermal stability. The degree of stabilization is proportional to the binding affinity of the ligand for the macromolecule.
# ERβ = ERβ (Homo sapiens, UniProt Q92731); assay: ThermoFluor thermal shift assay, ERβ; assay type: binding; conditions: 100 μM test compound; 0.1 mg/mL protein, 25 mM HEPES pH 8.0; Tm free protein 41.1 °C; read-out: ΔTm, thermal stabilization of ERβ
# Chain of ERβ (Q92731 whole entry, species assumed): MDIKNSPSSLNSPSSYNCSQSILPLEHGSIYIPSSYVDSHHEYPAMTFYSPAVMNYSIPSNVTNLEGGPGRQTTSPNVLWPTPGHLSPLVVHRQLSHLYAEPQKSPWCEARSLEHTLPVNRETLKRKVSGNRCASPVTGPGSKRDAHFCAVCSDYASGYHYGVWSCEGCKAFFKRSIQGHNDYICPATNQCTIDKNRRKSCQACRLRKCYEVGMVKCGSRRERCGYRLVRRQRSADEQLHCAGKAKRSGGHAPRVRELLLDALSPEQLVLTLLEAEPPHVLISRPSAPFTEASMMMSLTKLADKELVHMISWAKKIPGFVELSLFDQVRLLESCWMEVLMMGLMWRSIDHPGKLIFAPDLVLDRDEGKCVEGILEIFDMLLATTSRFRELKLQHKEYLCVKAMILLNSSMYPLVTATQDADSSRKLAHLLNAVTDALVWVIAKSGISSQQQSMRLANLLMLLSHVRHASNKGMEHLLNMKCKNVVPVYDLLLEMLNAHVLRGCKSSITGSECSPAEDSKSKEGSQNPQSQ
# ERRγ-SRC2 complex = molecular target: T5, ERRγ-SRC2 complex (Homo sapiens, UniProt P62508); assay: TR-FRET co-activator recruitment assay; assay type: biochemical
# T5 construct: made in house; host or cells: E. coli BL21(DE3) (ERRγ LBD)
# T5 sequence (P62508 229-458): T4 sequence (P62508 229-458)
# Description: For FRET measurements, the reaction was buffered in 25 mM Tris pH 8, 2.5 mM Hepes, 20 mM KCl, 1 mM DTT, and 0.05 mg/mL delipidated BSA.
# Time-resolved Fluorescence resonance energy transfer (FRET) experiments were performed to examine the functional response of ERRγ ligands.
# For FRET measurements, the reaction was buffered in 25 mM Tris pH 8, 2.5 mM Hepes, 20 mM KCl, 1 mM DTT, and 0.05 mg/mL BSA (-lipids). […] Reactions were allowed to reach equilibrium at 25° C. for 4-18 hours before collecting data on the Analyst from LJL Biosystems (Molecular Devices Sunnyvale, Calif.). […] Dose response curves were fitted using a hyperbolic equation and the data reported is the average of three independent experiments.
# ERRγ = molecular target: T6, ERRγ (Homo sapiens, UniProt P62508); assay: Isothermal titration calorimetry; assay type: binding
# T6 construct: 6His; made in house; host or cells: E. coli BL21(DE3)
# T6 sequence (P62508 229-458): T4 sequence (P62508 229-458)
# Description: The heat of interaction of the ligands with ERRγ molecules was measured by using the Omega titration calorimeter from Microcal Inc. In a typical titration, 1.4 mL of a 20 μM protein solution is titrated with a ligand solution of ˜0.4 mM concentration using a 100 μL syringe by ˜20 injections of 5-6 μL each. This syringe is also used to mix the reactants completely in the sample cell by rotating it at 400 rpm. For each injection, the area under the resulting peak is proportional to the heat of interaction, Q. Once this heat is corrected for the titrant dilution and normalized by the titrant solution concentration it becomes equal to the binding enthalpy, ΔHb, under nonsaturating conditions. The precision of the heat of each injection is about 0.5 μcal. One method of determining ΔHb is to average several intermediate peaks from the different sites. In addition to the binding enthalpies, one can obtain binding affinities, and overall stoichiometries of the complexes. The experimental calorimetric binding isotherm is the dependence of the total heat, Qr, (or dQrldX T) on the total concentration of ligand added, Xr. The above three parameters for each type of site are determined iteratively using the Marquardt algorithms as described previously.
# pBIND-Gal4-ERRγ = assay: Cell based reporter (trans-activation) assay in HEK293E cells; conditions: luciferase reporter, Gal4-ERRγ and pACT-SRC2, 24 hours of compound treatment
# Description: A cell based reporter assay was used to determine the functional response of the ERRγ hits. Transfections were performed in HEK293E cells that were maintained in DMEM supplemented in glutamine and 10% FBS. Co-transfections of 4 μg of a luciferase reporter plasmid and 4 μg of each pBIND-Gal4-ERRγ and pACT-SRC2 plasmids per T-75 flask were done using Lipofectamine as per manufacturers instructions. Twenty-four hours post-transfection, the cells were seeded in 96-well plates at density of 50,000 cells per well in assay media (DMEM phenol free, 5% charcoal stripped FBS). […] After 24 hours of compound treatment, cells were lysed and treated with the Promega Dual-Glo system. Firefly Luciferase activity was read using a luminescence plate reader, and data were normalized against Renilla luciferase activity. Data were fitted using subroutines available from GraphPad.
Molecule,"ΔTm, thermal stabilization of ERRα (ERRα)","ΔTm, thermal stabilization of ERRβ (ERRβ; 100 μM test compound, 0.1 mg/mL protein, 25 mM HEPES pH 8.0, Tm free protein 47.5 °C)","Kd (ERRβ; calculated at reference temperature 25 °C from ΔTm of Table II, ΔHu 155 kcal/mol, read-out: Estimated dissociation constant, ERRβ)","ΔTm, thermal stabilization of ERα (ERα; pH 8)","Thermal stabilization of ERRγ by loss of α-helicity (CD), in words [1]","ΔTm at 100 µM (ERRα; read-out: ΔTm, thermal stabilization of ERRα)","ΔTm at 100 µM (ERRβ; 100 μM test compound, 0.1 mg/mL protein, 25 mM HEPES pH 8.0, Tm free protein 47.5 °C, read-out: ΔTm, thermal stabilization of ERRβ)","ΔTm at 100 µM (ERα; 100 μM test compound, 0.1 mg/mL protein, 25 mM HEPES pH 8.0, Tm free protein 39.1 °C, read-out: ΔTm, thermal stabilization of ERα)",ΔTm at 100 µM (ERβ),"Enhancement in the affinity of the receptor for co-activator peptide fragments, in words (ERRγ-SRC2 complex)","Displacement of co-activator peptide from ERRγ (antagonism), in words (ERRγ-SRC2 complex; 6 nM ERRγ LBD, 6 nM GST-SRC-2 peptide)","Kd (ERRγ; 20 μM protein titrated with ~0.4 mM ligand, read-out: Binding affinity by isothermal titration calorimetry)",Binding enthalpy ΔHb (ERRγ; isothermal titration calorimetry),"Change in transcriptional activity in trans-activation cellular assay, in words (pBIND-Gal4-ERRγ)"
4-hydroxytamoxifen [4OHT],−0.1 °C,2.15 °C,2640 nM,17.1 °C,positive thermal stabilization,–,–,–,–,–,–,–,–,–
"CC(C)(c1ccc(O)cc1)c1ccc(O)cc1 [BPA, bisphenol A]",–,–,–,–,–,0 °C,-0.1 °C,4.4 °C,7.4 °C,not able to demonstrate,ineffective; also recorded: neither ligand displaced co-activator peptide,70 nM,~-21 kcal/mol,not able to demonstrate
